Tests used:
Cdk2(S276C) (C177A) = target: T1, Cdk2(S276C) (C177A) (Homo sapiens, UniProt P24941, C177A/S276C); experiment: Kinetic thiol consumption assay with Cdk2 mutant S276C; format: binding; set-up: key to Rate enhancement, Cdk2 S276C: rate constant with Cdk2 ÷ rate constant with model thiol (fold); settings: additional mutation C177A; for Rate constant with Cdk2 S276C: Protein: Cdk2, cysteine position S276C, in h^-1
T1 construct: poly-histidine; made in house; host or cells: E. coli
Outline: (§1)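 His-tagged single-surface-cysteine Cdk2 mutants (C177A background) from E. coli, 5 μM in degassed phosphate buffer pH 8, pre-treated with immobilized TCEP beads. Fluorescence (ex/em 380/470 nm) read after 1 h at room temperature, normalized to DMSO/thiol-only control; first-order decay fits gave rate constants, divided by model-thiol rate for rate enhancement.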

Cdk2(R122C) (C177A) = target: T2, Cdk2(R122C) (C177A) (Homo sapiens, UniProt P24941, C177A/R122C); experiment: Kinetic thiol consumption assay with Cdk2 mutant R122C; format: binding; set-up: key to Rate enhancement, Cdk2 R122C: rate constant with Cdk2 ÷ rate constant with model thiol (fold); settings: additional mutation C177A; for Rate constant with Cdk2 R122C: Protein: Cdk2, cysteine position R122C, in h-1
T2 construct: poly-histidine; made in house; host or cells: E. coli
Outline: as §1

[1] = Kinetic thiol consumption assay with model thiol glutathione; format: physicochemical; set-up: Rate constant with glutathione (k(GSH)): unit not given here; settings: for Rate constant with glutathione (k(GSH)): 500 μM ligand, 5 μM thiol, phosphate buffer pH 8; for Rate constant with Glutathione: Protein: Glutathione, cysteine position NA, in h-1
Outline: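 Rate constants for acrylamide reaction with 5 μM glutathione come from first-order exponential fits of normalized fluorescence decay (ex 380, em 470 nm). Reactions run in degassed phosphate buffer at pH 8 containing TCEP beads, room temperature.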

Cdk2[C177A, F80C, K278C] = target: T3, Cdk2[C177A, F80C, K278C] (Homo sapiens, UniProt P24941, C177A/F80C/K278C); experiment: Kinetic thiol consumption assay with mutant Cdk2 as model thiol; format: binding; set-up: unit not given here; settings: 500 μM ligand, 5 μM thiol, phosphate buffer pH 8
T3 construct: poly-histidine; made in house; host or cells: E. coli
Outline: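 Model thiol: His-tagged human Cdk2 C177A/F80C/K278C (two engineered surface cysteines), E. coli-expressed, 5 μM in degassed phosphate buffer pH 8 with immobilized TCEP beads (2% v/v). Fluorescence (ex/em 380/470 nm) followed over time at room temperature, normalized to DMSO/thiol control. First-order decay fit gives rate constants.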

Cdk2(T182C) (C177A) = target: T4, Cdk2(T182C) (C177A) (Homo sapiens, UniProt P24941, C177A/T182C); experiment: Kinetic thiol consumption assay with Cdk2 mutant T182C; format: binding; set-up: key to Rate enhancement, Cdk2 T182C: rate constant with Cdk2 ÷ rate constant with model thiol (fold); settings: additional mutation C177A; for Rate constant with Cdk2 T182C: Protein: Cdk2, cysteine position T182C, in h^-1
T4 construct: poly-histidine; made in house; host or cells: E. coli
Outline: as §1

Cdk2(N272C) (C177A) = target: T5, Cdk2(N272C) (C177A) (Homo sapiens, UniProt P24941, C177A/N272C); experiment: Kinetic thiol consumption assay with Cdk2 mutant N272C; format: binding; set-up: key to Rate enhancement, Cdk2 N272: rate constant with Cdk2 ÷ rate constant with model thiol (fold); settings: for Rate enhancement, Cdk2 N272: Cdk2 N272, additional mutation C177A; for Rate constant with Cdk2 N272C: Protein: Cdk2, cysteine position N272C, additional mutation C177A, in h^-1
T5 construct: poly-histidine; made in house; host or cells: E. coli
Outline: as §1

Cdk2(S181C) (C177A) = target: T6, Cdk2(S181C) (C177A) (Homo sapiens, UniProt P24941, C177A/S181C); experiment: Kinetic thiol consumption assay with Cdk2 mutant S181C; format: binding; set-up: key to Rate enhancement, Cdk2 S181C: rate constant with Cdk2 ÷ rate constant with model thiol (fold); settings: additional mutation C177A; for Rate constant with Cdk2 S181C: Protein: Cdk2, cysteine position S181C, in h^-1
T6 construct: poly-histidine; made in house; host or cells: E. coli
Outline: as §1

[2] = target: T7, human cyclin-dependent kinase 2 (Cdk2) (Homo sapiens, UniProt P24941); experiment: Kinetic thiol consumption assay with wild type Cdk2 (C177); format: binding; set-up: key to Rate enhancement, Cdk2 WT: k(Cdk2) divided by k(model thiol); Rate constant with Cdk2 (k(Cdk2)): unit not given here; settings: for Rate constant with Cdk2 (k(Cdk2)): 500 μM ligand, 5 μM thiol, phosphate buffer pH 8; for Rate enhancement, Cdk2 WT: no additional mutations; for Rate constant with Cdk2 WT: Protein: Cdk2, cysteine position WT, in h^-1; for k(Cdk2)/k(Cdk2_mut) rate enhancement: model thiol Cdk2[C177A, F80C, K278C]; for k(Cdk2)/k(GSH) rate enhancement: model thiol glutathione
T7 construct: poly-histidine; made in house; host or cells: E. coli
Outline: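 His-tagged human Cdk2 (single surface cysteine C177), expressed in E. coli, or a model thiol at 5 μM in degassed phosphate buffer pH 8 was pre-treated with immobilized TCEP beads (2% v/v) before acrylamide addition. Fluorescence (ex/em 380/470 nm) was read after 1 h at room temperature, normalized to DMSO/thiol-only control and plotted versus time.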

Cdk2(H71C) (C177A) = target: T8, Cdk2(H71C) (C177A) (Homo sapiens, UniProt P24941, C177A/H71C); experiment: Kinetic thiol consumption assay with Cdk2 mutant H71C; format: binding; set-up: key to Rate enhancement, Cdk2 H71C: rate constant with Cdk2 ÷ rate constant with model thiol (fold); settings: additional mutation C177A; for Rate constant with Cdk2 H71C: Protein: Cdk2, cysteine position H71C, in h^-1
T8 construct: poly-histidine; made in house; host or cells: E. coli
Outline: as §1

Cdk2(C177A, F80C) = target: T9, Cdk2(C177A, F80C) (Homo sapiens, UniProt P24941, C177A/F80C); experiment: Kinetic thiol consumption assay with Cdk2 mutant F80C, incl. kobs versus concentration (Kd, k2); format: binding; set-up: key to Rate enhancement, Cdk2 F80C: Cdk2 rate constant divided by model-thiol rate constant; settings: additional mutation C177A; for Rate constant with Cdk2 F80C: Protein: Cdk2, cysteine position F80C, in h^-1
T9 construct: poly-histidine; made in house; host or cells: E. coli
Outline: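 His-tagged Cdk2(C177A/F80C) from E. coli or model thiol, 5 μM in degassed phosphate buffer pH 8 with TCEP beads, reacted with acrylamide ligands; fluorescence (ex/em 380/470 nm) normalized to DMSO control and fitted to first-order decay for kobs. Kd and k2 obtained from hyperbolic fit of kobs versus ligand concentration.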

| Structure (SMILES) | Rate enhancement, Cdk2 S276C (Cdk2(S276C) (C177A)) | Rate constant with Cdk2 S276C (Cdk2(S276C) (C177A)) | Rate enhancement, Cdk2 R122C (Cdk2(R122C) (C177A)) | Rate constant with Cdk2 R122C (Cdk2(R122C) (C177A)) | Rate constant with glutathione (k(GSH)) [1] | Rate constant with Glutathione [1] | Rate constant with Cdk2[C177A, F80C, K278C] (k(Cdk2_mut)) (Cdk2[C177A, F80C, K278C]) | Rate enhancement, Cdk2 T182C (Cdk2(T182C) (C177A)) | Rate constant with Cdk2 T182C (Cdk2(T182C) (C177A)) | Rate enhancement, Cdk2 N272 (Cdk2(N272C) (C177A)) | Rate enhancement, Cdk2 S181C (Cdk2(S181C) (C177A)) | Rate constant with Cdk2 S181C (Cdk2(S181C) (C177A)) | Rate constant with Cdk2 (k(Cdk2)) [2] | Rate enhancement, Cdk2 WT [2] | Rate constant with Cdk2 WT [2] | k(Cdk2)/k(Cdk2_mut) rate enhancement [2] | k(Cdk2)/k(GSH) rate enhancement [2] | Rate enhancement, Cdk2 H71C (Cdk2(H71C) (C177A)) | Rate enhancement, Cdk2 F80C (Cdk2(C177A, F80C)) | Rate constant with Cdk2 F80C (Cdk2(C177A, F80C)) | other results |
| --- | --- | --- | --- | --- | --- | --- | --- | --- | --- | --- | --- | --- | --- | --- | --- | --- | --- | --- | --- | --- | --- |
| C=CC(=O)N1CCN(S(C)(=O)=O)CC1c1ccccc1 (stereo not shown) [EL-1160] | 0.7682 | 0.02201 | 0.2711 | 0.007767 | 0.0286 | 0.02865 | 0.00414 | 2 | 0.05729 | 0.5689 | 0.4684 | 0.01342 | 0.01181 | 0.4122 | 0.01181 | 2.854 | 0.4129 | 0.9714 | 0.4705 | 0.01348 | Rate constant with Cdk2 N272C (Cdk2(N272C) (C177A)): 0.0163; Rate constant with Cdk2 H71C (Cdk2(H71C) (C177A)): 0.02783 |
| C=CC(=O)NC(Cc1ccccc1)C(O)CF (stereo not shown) [EL-1164] | 2.9904E−12 | 2.302E−14 | 0 |  | 0.00485 | 0.007698 | 0.00073 | 0.1829 | 0.001408 | 0.09396 | 0.9819 | 0.007559 | 0.00239 | 0.4757 | 0.003662 | 3.262 | 0.4934 | 0 | 0.2794 | 0.002151 | Rate constant with Cdk2 N272C (Cdk2(N272C) (C177A)): 0.0007233 |
| C=CC(=O)N1CCCN2C(=O)CCC12c1ccc(OC)cc1 (stereo not shown) [EL-1168] | 0.6022 | 0.008034 | 0.3022 | 0.004032 | 0.01343 | 0.01334 | 0.00175 | 2.927 | 0.03904 | 0.6555 | 1.741 | 0.02323 | 0.00974 | 0.7298 | 0.009736 | 5.551 | 0.7249 | 0.8583 | 0.3123 | 0.004166 | Rate constant with Cdk2 N272C (Cdk2(N272C) (C177A)): 0.008745; Rate constant with Cdk2 H71C (Cdk2(H71C) (C177A)): 0.01145 |
| C=CC(=O)NCCc1c[nH]c2ccccc12 [EL-1174] | 0.716 | 0.003008 | 0.532 | 0.002235 | 0.00253 | 0.004201 | 0.00688 | 1.377 | 0.005783 | 0 | 0.5058 | 0.002125 | 0.0009 | 0.3449 | 0.001449 | 0.131 | 0.3555 | 0.8572 | 3.249 | 0.01365 | Rate constant with Cdk2 H71C (Cdk2(H71C) (C177A)): 0.003601 |
| C=CC(=O)N1CCN(Cc2ccc(Cl)cc2)CC1 [EL-1183] | 0.8088 | 0.005301 | 0.5841 | 0.003828 | 0.00676 | 0.006554 | 0.00864 | 2.26 | 0.01481 | 0.4193 | 0.8531 | 0.005591 | 0.00376 | 0.574 | 0.003762 | 0.4353 | 0.5564 | 1.823 | 2.859 | 0.01874 | Rate constant with Cdk2 N272C (Cdk2(N272C) (C177A)): 0.002748; Rate constant with Cdk2 H71C (Cdk2(H71C) (C177A)): 0.01195 |
| C=CC(=O)N1CCCC(C(=O)OCC)C1 (stereo not shown) [EL-1187] | 0.4007 | 0.005321 | 0.1436 | 0.001907 | 0.00634 | 0.01328 | 0.00336 | 4.397 | 0.05839 | 0.5301 | 0.2887 | 0.003834 | 0.00596 | 0.6935 | 0.00921 | 1.774 | 0.9394 | 0.4465 | 0.4424 | 0.005875 | Rate constant with Cdk2 N272C (Cdk2(N272C) (C177A)): 0.00704; Rate constant with Cdk2 H71C (Cdk2(H71C) (C177A)): 0.005929 |
| C=CC(=O)Nc1cccc(Nc2ncnc3cc(OC)c(OC)cc23)c1 [GC248] | 0.1863 | 0.002781 | 0.8326 | 0.01243 | 0.01495 | 0.01493 | 0.0156 | 34.92 | 0.5214 | 1.058 | 1.037 | 0.01548 | 0.01014 | 0.9116 | 0.01361 | 0.65 | 0.6783 | 0.6345 | 0.1205 | 0.001799 | Rate constant with Cdk2 N272C (Cdk2(N272C) (C177A)): 0.01579; Rate constant with Cdk2 H71C (Cdk2(H71C) (C177A)): 0.009473 |
